IC50 data for three compounds are collected here from patent US6803368B2, “Antipsychotic aminomethyl derivatives of 7,8-dihydro-3H-6,9-dioxa-1,3-diaza-cyclopenta[a]naphthalene” (Wyeth, priority 2001, dated 2004).

One may read the IC50 as the concentration needed to halve the response being measured. Low readings indicate greater potency in that assay, high ones weaker potency in that assay.

The assay concerns the target T1, dopamine D2 receptor (Rattus norvegicus, UniProt P61169).
T1 construct: from tissue; host or cells: rat striatal brain tissue homogenate
Kind of assay: Dopamine D2 receptor affinity, 3H-quinpirole binding in homogenized rat striatal brain tissue. On the procedure:
Affinity for the dopamine D2 receptor was established by a modification of the standard experimental test procedure of Seemen and Schaus, European Journal of Pharmacology 203: 105-109, 1991, wherein homogenized rat striatal brain tissue is incubated with ^3H-quinpirole and various concentrations of test compound, filtered and washed and counted in a Betaplate scintillation counter.

T1 sequence (P61169 whole entry): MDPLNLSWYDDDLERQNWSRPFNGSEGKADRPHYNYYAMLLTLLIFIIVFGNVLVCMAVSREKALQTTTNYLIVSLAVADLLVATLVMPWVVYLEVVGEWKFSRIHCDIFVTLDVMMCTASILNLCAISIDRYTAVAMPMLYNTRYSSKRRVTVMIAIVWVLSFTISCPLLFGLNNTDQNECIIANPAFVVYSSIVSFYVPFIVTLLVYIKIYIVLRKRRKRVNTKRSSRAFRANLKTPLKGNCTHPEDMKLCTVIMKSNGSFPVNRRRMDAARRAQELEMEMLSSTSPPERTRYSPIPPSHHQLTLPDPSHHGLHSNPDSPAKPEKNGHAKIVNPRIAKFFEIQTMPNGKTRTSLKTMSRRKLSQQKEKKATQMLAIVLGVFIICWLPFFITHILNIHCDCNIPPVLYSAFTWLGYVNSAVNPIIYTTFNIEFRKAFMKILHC

`FC(F)(F)c1nc2c3c(ccc2[nH]1)OC[C@H](CNCCCCc1ccccc1)O3` [Example 2, (4-Phenyl-butyl)-(2-trifluoromethyl-7,8-dihydro-3H-6,9-dioxa-1,3-diaza-cyclopenta[a]naphthalen-8-ylmethyl)-amine] registered an IC50 of 0.4 nM.
Consider `FC(F)(F)c1nc2c3c(ccc2[nH]1)OCC(CNCc1ccccc1)O3` (stereo not drawn) [Example 3, Benzyl-(2-trifluoromethyl-7,8-dihydro-3H-6,9-dioxa-1,3-diaza-cyclopenta[a]naphthalen-8-ylmethyl)-amine], for which the IC50 amounted to 2.2 nM.
Next, “(2-Trifluoromethyl-7,8-dihydro-3H-6,9-dioxa-1,3-diaza-cyclopenta[a]naphthalen-8-yl)-methylamine [Example 1]”: 260 nM.
